Results taken from the NIST ThermoML archive (doi:10.1016/j.jct.2016.04.014).

Assay: xn = mol fraction of the nth substance listed
Settings: Liquid, Vibrating tube method

CCCCCCCC [octane] + CCCCCCC
mass density [kg/m3]
Settings | 100 kPa | 500 kPa | 5000 kPa | 10000 kPa | 15000 kPa | 20000 kPa | 25000 kPa | 30000 kPa | 35000 kPa | 40000 kPa
323.15 K, x2 = 0.25 | – | – | – | – | – | 692.1 | 696.1 | 699.9 | 703.6 | 707
323.15 K, x2 = 0.5002 | – | – | – | – | 683.6 | 687.9 | 692 | 695.8 | 699.5 | 703
323.15 K, x2 = 0.7502 | – | – | – | – | 678.7 | 683.1 | 687.3 | 691.2 | 694.9 | 698.5
333.15 K, x2 = 0.25 | 664.9 | 665.4 | 670.4 | 675.6 | 680.4 | 684.9 | 689.2 | 693.2 | 696.9 | 700.6
333.15 K, x2 = 0.5002 | 660.2 | 660.6 | 665.8 | 671.1 | 676 | 680.6 | 684.9 | 689 | 692.8 | 696.5
333.15 K, x2 = 0.7502 | 654.8 | 655.3 | 660.6 | 666 | 671.1 | 675.8 | 680.2 | 684.3 | 688.2 | 692
353.15 K, x2 = 0.25 | 647.5 | 648.1 | 653.9 | 659.9 | 665.4 | 670.5 | 675.2 | 679.6 | 683.7 | 687.7
353.15 K, x2 = 0.5002 | 642.5 | 643.1 | 649.1 | 655.2 | 660.8 | 666 | 670.8 | 675.3 | 679.5 | 683.6
353.15 K, x2 = 0.7502 | 636.9 | 637.4 | 643.6 | 649.9 | 655.7 | 661 | 665.9 | 670.4 | 674.7 | 678.9
373.15 K, x2 = 0.25 | – | 630.3 | 637.1 | 644.1 | 650.3 | 656 | 661.2 | 666.1 | 670.7 | 675.1
373.15 K, x2 = 0.5002 | – | 625 | 632 | 639.2 | 645.6 | 651.4 | 656.7 | 661.7 | 666.3 | 670.8
373.15 K, x2 = 0.7502 | – | 619 | 626.3 | 633.6 | 640.2 | 646.2 | 651.7 | 656.7 | 661.5 | 666
